The subject of assay [1] is patients (chronic insulin resistance). The following applies: chronic antioxidant therapy, e.g., in diabetic neuropathy; ref [7]; cited from earlier work. The source says: Moreover, using the so-called “breakthrough” therapy, a 2–4 week decrease in glucotoxicity is able to normalize glycemia by decreasing insulin resistance for months or years. Because clinical insulin resistance can be reverted, it is not an alteration of the DNA, but rather some type of protein abnormality; this can be hypothesized given the background of this oxidative stress-induced clinical condition.

In assay [2] the test system is human PTP1B catalytic domain (1–299 aa). Description: PTP1B dephosphorylation assay, capillary electrophoresis. Type of assay: biochemical. The note with it: 80 μM phosphopeptide, 25 nM PTP1B, 50 mM TRIS, 150 mM NaCl, 1 mM EDTA, 2 mM DTT, pH 7.4. Here is the method:
The cDNA segment encoding the human PTP1B catalytic domain (1–299 aa) was PCR amplified from a HEK293T cDNA pool and inserted into the pBH4 vector with BamHI and NotI restriction sites. This construct is only missing the C-terminal flexible region and the membrane binding segment of PTP1B. The protein was expressed with an N-terminal hexa-histidine tag. Recombinant active PTP1B was expressed in the Escherichia coli BL21 (DE3) bacterial strain. Briefly, cells were grown in an ampicillin-containing LB medium at 37 °C to OD = 0.6 and then cooled down to 18 °C and induced by the addition of 0.05 mM isopropyl-beta-D-thiogalactoside (IPTG). After an overnight expression at 18 °C, the pellet was harvested and washed with phosphate buffered saline (PBS). Following freezing at −80 °C, cells were lysed in an appropriate buffer (300 mM NaCl, 50 mM phosphate, 10 mM imidazole, 2 mM beta-mercapto-ethanol, 0.1% IGEPAL with pH = 8.0, and 0.5 mM benzamidine with 0.5 mM PMSF protease inhibitors added) with the help of sonification. The lysate was centrifuged at 20,000 rpm for 30 min and the supernatant (~30 mL) was mixed with 1 mL Ni-NTA resin slurry (50%). After 45 min incubation at 4 °C, the mixture was transferred to gravity columns and washed with 10-10 mL of imidazole (40 mM imidazole, 300 mM NaCl, 50 mM phosphate, pH = 8.0 with 2 mM beta-mercapto-ethanol) and high salt (1000 mM NaCl, 20 mM imidazole, 20 mM TRIS, pH = 8.0 with 2 mM beta-mercapto-ethanol) containing wash buffers, each. PTP1B was eluted by applying 5 mL elution buffer (400 mM imidazole, 200 mM NaCl, 10% glycerol, 20 mM TRIS, pH = 8.0, with 0.1% IGEPAL). The eluted protein was supplemented with tricarboxy-ethyl-phosphine (TCEP) reducing agent at 2 mM concentration.
The Ni-NTA purified PTP1B protein was further purified by anion exchange chromatography. […]
Background electrolyte (BGE) components phosphoric acid and triethylamine were purchased from Sigma (St. Louis, MO, USA) and from Merck GmbH (Darmstadt, Germany), respectively. […] On-line absorption at 200 nm was monitored by DAD UV-Vis detector. […]

Assay [3] deals with T1, C-terminal SH2 domain of PI3K regulatory subunit 1 (Homo sapiens, UniProt P27986).
T1 construct: The N- and C-terminal SH2 domains (regions 321–433 and 614–724, respectively) of the PI3K regulatory subunit; hexa-histidine (inferred: expressed and purified like His-tagged PTP1B); made in house; host or cells: Escherichia coli (bacterial expression vector; strain BL21 (DE3) is stated only for PTP1B)
T1 sequence (P27986 614-724): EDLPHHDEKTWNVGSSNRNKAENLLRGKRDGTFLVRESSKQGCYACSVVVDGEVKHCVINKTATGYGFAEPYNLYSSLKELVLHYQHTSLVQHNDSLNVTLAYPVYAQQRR
Description: Fluorescence polarization binding, PI3K-SH2(C). The note with it: competitive FP; statement for the SH2 domains. An excerpt:
The N- and C-terminal SH2 domains (regions 321–433 and 614–724, respectively) of the PI3K regulatory subunit were subcloned into a bacterial expression vector by PCR and then similarly expressed and purified as described above.
For in vitro fluorescence polarization (FP)-based affinity measurements, a peptide containing the phosphorylated tyrosine residue 632 of human IRS1 was labelled by lys-carboxyfluorescenine at its C-terminal end (GRKGSGD(pY)MPMSPKS(K-FITC). Synthesis of the labelled peptide was done by GenScript Inc. For competitive FP measurements, unlabeled peptides with either natural (para-phospho-Tyr) or unnatural (ortho-phospho-Tyr and meta-phospho-Tyr) phosphorylated amino acids (core sequence GRKGSGD(pY)MPMSPKV in all three cases) were used. Direct titration with the labelled peptide was done by generating a dilution series of the protein (N-terminal and C-terminal SH2 domains of PI3K regulatory subunit 1), with a constant (100 nM) peptide concentration in a standard buffer (100 mM NaCl, 20 mM TRIS pH = 8.0, 0.05% Brij-35 detergent). Competitive titrations were done by keeping the concentration of the protein-labelled peptide mixture constant (150 nM and 1500 nM C-terminal and N-terminal domain, respectively, with 100 nM labelled peptide) and varying the concentration of the unlabeled competitor peptide instead. […]
A general note: In fluorescence polarisation assays a small probe gives low polarisation when free and higher when bound to something large.

Assay [4] deals with acute insulin resistance. The note with it: ref [6]; cited from earlier work. An excerpt: Acute insulin resistance induced by tumor necrosis factor alpha (TNFα) or dexamethasone could be ameliorated by the antioxidants N-acetylcysteine, manganese (III) tetrakis (4-benzoicacid) porphyrin (MnTBAP), or by induction of antioxidant enzymes such as superoxide dismutase or catalase.

Assay [5] has as its system type 2 diabetic patients. The following applies: ref [40]; cited from earlier work. An excerpt:
Elevated levels of m- and/or o-Tyr have been described in the vascular wall of cynomolgus monkeys as well as in cataract lenses.

Here are results for seven molecules from PMC9138545, “Incorporation of Oxidized Phenylalanine Derivatives into Insulin Signaling Relevant Proteins May Link Oxidative Stress to Signaling Conditions Underlying Chronic Insulin Resistance” (Biomedicines, 2022).

Consider `O=C(O)CCCCC1CCSS1` (stereo not drawn) [alpha-lipoic acid], for which the chronic insulin resistance result in assay [1] was “able to improve chronic insulin resistance”.

With “GRKGSGDF(3-PO4H2)MPMSPKV [GRKV4, phospho-meta-Tyr containing IRS-1 YXXM motif peptide]”, the “dephosphorylation by PTP1B” value in assay [2] is given as “incapable of dephosphorylating”. In addition, in assay [3], the “binding affinity compared to phospho-para-Tyr peptide (GRKV2), PI3K-SH2(C)” value was “greatly reduced binding affinity”.

Regarding “GRKGSGDF(4-PO4H2)MPMSPKV [GRKV2, phospho-para-Tyr containing IRS-1 YXXM motif peptide]”, the “dephosphorylation by PTP1B” value in assay [2] was “apart from the p-Tyr peptide, none of the modified Tyr containing peptides could be dephosphorylated by PTP1B”.

As for `CC(=O)N[C@@H](CS)C(=O)O` [N-acetylcysteine], the “acute insulin resistance induced by TNFα or dexamethasone” value in assay [4] is given as “ameliorated”.

For the molecule `O=C(O)c1ccc(-c2c3nc(c(-c4ccc(C(=O)O)cc4)c4ccc([n-]4)c(-c4ccc(C(=O)O)cc4)c4nc(c(-c5ccc(C(=O)O)cc5)c5ccc2[n-]5)C=C4)C=C3)cc1.[Mn+3]` [MnTBAP, manganese (III) tetrakis (4-benzoicacid) porphyrin], the “acute insulin resistance induced by TNFα or dexamethasone” value in assay [4] is reported as “ameliorated”.

`Oc1ccc(/C=C/c2cc(O)cc(O)c2)cc1` [resveratrol]: in assay [5], the insulin resistance result is “improvement in insulin resistance” and the “urinary excretion of o-Tyr” value is on record as “decrease in urinary excretion of o-Tyr”.

Turning to “GRKGSGDF(2-PO4H2)MPMSPKV [GRKV6, phospho-ortho-Tyr containing IRS-1 YXXM motif peptide]”, the “dephosphorylation by PTP1B” value in assay [2] is reported as “incapable of dephosphorylating”. For the same molecule, the “binding affinity compared to phospho-para-Tyr peptide (GRKV2), PI3K-SH2(C)” value in assay [3] is given as “greatly reduced binding affinity”.
